row,Structure (SMILES),melting point [°C]
1,CN(C)CCC1=Cc2ccc(NC(=O)c3ccc(-c4ccccc4)cc3)cc2CC1,148 to 150
2,Cc1cc(Oc2c(Cl)cc(C(F)(F)F)cc2Cl)nn1C(=S)NC(C)C,92 to 94
3,O=c1[nH]c2ccc(Cl)cc2n1CCO,160
4,O=C(CCCCN1CCC(Cc2ccccc2)CC1)c1ccc2c(c1)-c1ccc(C(=O)CCCCN3CCC(Cc4ccccc4)CC3)c3cccc-2c13,126 to 128
5,COc1cc(CNC(=O)c2nc3cn(CCCc4ccccc4)nc3c(=O)[nH]2)ccc1F,137 to 140
6,Cn1ncnc1COCc1cccc(-n2cnc3cc(C(F)(F)F)ccc32)c1,121 to 124
7,N#CNc1ccccc1-c1ccc(Cl)cc1,106 to 107
8,COc1cc(-c2ccccc2)c(OCC(=O)O)c(-c2ccccc2)c1,143 to 145
9,O=C(CN1CCN(c2ncccn2)CC1)c1ccc(-c2cccc(C(F)(F)F)c2)nc1,124 to 126
10,CC(c1ccccc1)C1(OC(=O)C(C)(C)C)C(=O)NC(=O)NC1=O (centres undefined),205 to 207
11,CC(=O)OCCn1ccc(=O)c(O)c1Cc1ccc(C)cc1,205 to 206
12,O=C(NCc1ccccc1-c1ccccc1C(=O)NCCc1ccccn1)c1ccccc1,135
13,Cc1cc(C(=O)N2Cc3ccc(C(=O)N(CCCN(C)C)CCCN(C)C)n3Cc3ccccc32)ccc1-c1ccccc1C(F)(F)F,55 to 64
14,CC(=O)OC1CSC(Oc2cncc(-c3ccc(C#N)nc3)c2)C(OC(C)=O)C1OC(C)=O (centres undefined),142 to 151
15,O=C1CCCc2c1cccc2N1CCN(CCCCOc2ccc3ccc(=O)[nH]c3n2)CC1,158 to 160
16,CC(=O)OC1CCC2(C)C(CCC3C4CCC(C(C)CC(=O)C(=O)N5CCOCC5)C4(C)CC(=O)C32)C1 (centres undefined),122 to 123
17,Cc1cc(C(=O)O)ccc1C#CCc1ccc2c(c1)C(C)(C)CCC2(C)C,196 to 197

row,Structure (SMILES),melting point [°C]
1,CN(C)c1ccc2c(c1)NC(=O)CC2,154 to 156
2,O=C1NCCN=C1c1ccc(F)cc1,118 to 120
3,COc1cc2c(cc1OC)/C(=N/OCc1ccc3nonc3c1)CC2,163 to 166
4,NS(=O)(=O)c1ncccc1O,162 to 164
5,CC(C)(N)Cc1c[nH]c2ccc(Cl)cc12,156 to 158
6,O=C(CS(=O)(=O)C(c1ccc(Cl)cc1)c1ccc(Cl)cc1)c1ccccn1,120 to 121
7,CCCCCCOc1ccc(NC(=O)c2cnn(C)c2C)cc1C#N,150 to 151
8,CCCc1nc2c(N)nc3cccnc3c2n1CC1(O)CCOCC1,209 to 210
9,CCCCCN(C(=O)Oc1ccc(C(=O)O)cc1)c1ccc2c(c1)C(C)(C)CCC2(C)C,100 to 102
10,CCOc1cc2c3c(cccc3c1)C(=O)N(O)C2=O,224 to 227
11,CC(C)=CCC1(C(F)(F)F)C(=O)NC(=O)NC1=O,150 to 153
12,CSC(=Cc1ccccc1N(Cc1ccccc1)c1c(Cl)cccc1Cl)S(C)=O (centres undefined),194 to 196
13,COc1nc(N2CCCCC2)nc(OC)c1O,109
14,CN(C)Cc1ccc(CSCCNC(=C[N+](=O)[O-])NCCSCc2ccc(CN(C)C)o2)o1,58 to 62
15,O=C(O)C(=O)c1ccc(CCCOc2ccc3ccccc3c2)cc1,151 to 154
16,CCc1c(Oc2cnc(N)nc2N)cc(C)c2sccc12,181

# Second part, the compound after the results:
row,melting point [°C],Structure (SMILES)
1,169,Cc1cccc(NC(=O)NCC(=O)N2[C@@H](C(=O)NC(C)(C)C)CC[C@H]2c2ccccc2)c1 (racemic)
2,240,O=c1nc(-c2ccccn2)sc2ccc(F)cc12
3,219 to 221,COc1cc(OC)c2c(=O)[nH]c(-c3cc(C)c(OCCN4C(=O)CN(C(C)C)C4=O)c(C)c3)nc2c1
4,114 to 115,COC(=O)C=Cc1ccc(OCCc2nc(-c3ccccc3)oc2C)cc1
5,102,c1ccc(CN2CCc3[nH]c4ccc(Oc5ccccc5)cc4c3C2)cc1
6,153,Cn1c([N+](=O)[O-])cnc1COc1ccc([N+](=O)[O-])cc1C(F)(F)F
7,234 to 235,CC12CCC3c4cc([N+](=O)[O-])c(OCc5ccccc5)cc4CCC3C1CCC2=O (centres undefined)
8,71 to 72,COc1cc(C(C)=O)ccc1OC/C=C/CBr
9,132 to 134,COC(=O)C(C)n1nnc2ccc(O)cc21 (centres undefined)
10,185 to 186,N#Cc1ccc2sc(CBr)nc2c1
11,108 to 110,COc1cc(N)c2nc(C)cc(C)c2c1OC
12,141 to 143,C=C(C)COC(=O)N1CCN(c2c(C(=O)N3CCN(C)CC3)c3ccccc3n2-c2ccccc2)CC1
13,162,Cc1ccc(S(=O)(=O)OCC2OC(n3ccc(=O)[nH]c3=O)CC2O)cc1 (centres undefined)
14,229 to 230,CCOC(=O)c1cn(-c2c(O)cccc2O)cn1
15,201 to 202,CC(C)(Cc1c(C(C)(C)C)c2cc(OCc3ccc4ccccc4n3)ccc2n1Cc1ccc(Cl)cc1)C(=O)O
16,226 to 227,Cc1c(C(=O)N[C@H](C)[C@](O)(Cn2cncn2)c2ccc(F)cc2F)cnn1-c1c(Cl)cccc1Cl
17,142 to 143,COc1c(C(C)(C)C)cc(P(c2cc(C(C)(C)C)c(OC)c(C(C)(C)C)c2)c2ccccc2Br)cc1C(C)(C)C
18,243 to 245,CS(=O)(=O)c1ccc(-c2[nH]c3ccc(F)cc3c2-c2ccccc2)cc1

row,melting point [°C],Structure (SMILES)
1,> 260,CN(c1ccc(O)cc1)c1nc2ccccc2[nH]1
2,79.5 to 86,CCN(CC)CCNC(=O)c1cccc2c(=O)c(C)c(-c3cccc(C)c3)oc12
3,83 to 85,COC(=O)c1cnc(Cl)c(OC)c1
4,86 to 87,O=S(=O)(Nc1cccc(CCOCc2csc(-c3ccccc3Cl)n2)c1)C(F)(F)F
5,172,COC1=C(N=O)C(=O)NC1=Cc1ccccc1
6,104 to 105,COC(=O)C(Oc1ccc(-c2ccc(Cl)cc2)cc1)C(F)(F)F (centres undefined)
7,249,Cc1nc(C)c(C(=O)Nc2cccc(Oc3ccc4nc(NC(=O)C5CC5)cn4n3)c2)s1
8,247 to 250,Cn1c(=O)[nH]c2cc(Cl)cc(Cl)c2c1=O
9,170 to 173,CCOC(=O)C(=O)Nc1cc(NC(=O)C(=O)OCC)c(OC)nc1OC
10,217 to 219,CCCCN1C(N)=NS(=O)(=O)NC1Oc1cccc(C)c1 (centres undefined)
11,125 to 128,CCCCNc1nc(C)c(C(=O)c2ccc(Cl)c([N+](=O)[O-])c2)s1
12,154,Cc1ccc2cccc(OCc3c(Cl)ccc(S(=O)(=O)N(C)Cc4ccccc4)c3Cl)c2n1
13,172 to 176,O=C(O)C1=Cc2cc(S(=O)(=O)Cc3ccccc3)ccc2OC1C(F)(F)F (centres undefined)
14,183 to 184,COC(=O)c1ccc(-c2cc(-c3ccc(C(F)(F)F)cc3)on2)cc1
15,300 to 301,CC(=O)Nc1ccc(-c2ccc(NC(C)=O)cc2I)c(I)c1
16,193,Nc1ccc(C(=O)Nc2ccc(Cl)nc2)cc1F
17,> 300,N#Cc1c[nH]c2cc(Cl)c([N+](=O)[O-])cc2c1=O
18,150 to 156,COc1cc(Nc2nc3cccc(-c4ccc5[nH]cnc5c4)c3o2)cc(OC)c1OC
